Results: PubChem BioAssay (NCI)
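All cell lines were grown in 96-well plates and treated with compound for 48 hours. The concentration for 50% growth inhibition is given as GI50. TGI is the concentration that stops growth completely.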

System: MDA-MB-468 breast
Test: inhibition of tumour cell growth, NCI panel, 48 h

| SMILES | GI50 [nM] | TGI [nM] |
| --- | --- | --- |
| COc1ccc(S(=O)(=O)Nc2cc(Sc3cccc4cccnc34)c(O)c3ccccc23)cc1 | 1150 | 3120 |
| c1ccc(-c2cc3n4c(-c5ccccc5)nn(-c5ccccc5)c4cnc-3n2)cc1 | 4380 | > 50000 |
| CS(=O)(=O)CCNCc1ccoc1-c1ccc2ncnc(Nc3ccc(OCc4ccccc4)cc3)c2c1 | 506 | 4490 |
| COC(=O)[C@@H](C)C[C@H](Cc1ccccc1)NC(=O)c1csc([C@@H](C[C@H](C(C)C)N(C)C(=O)[C@@H](NC(=O)[C@H]2CCCCN2C)C(C(F)(F)F)C(F)(F)F)OC(C)=O)n1 | 21.3 | > 16700 |
| CNc1nc(-c2ccc3c(N)n[nH]c3c2)cc(N2C[C@@H](C(=O)NC3CCCCC3)CC[C@H]2C)n1 | 270 | 2440 |
| N=C1C=C(N)C(=O)c2ccccc21 | 112 | 248 |
| C[C@@H]1Cc2c(ccc3[nH]ncc23)[C@@H](c2ccc(NC3CN(CCCF)C3)cn2)N1CC(F)(F)F | 13400 | 27800 |
| COC(=O)Nc1nc2ccc(C(=O)c3cccs3)cc2[nH]1 | 161 | > 100000 |
| CNC(=O)c1cc(-c2ccc(F)cc2)cc(-c2ccc(S(=O)(=O)N3CCCC3)cc2)c1N | 5480 | > 25000 |
| NC1=C(O)C(=O)C(c2c[nH]c3ccc(OCc4ccccc4)cc23)O1 (stereo unspecified) | > 100000 | > 100000 |
| O=C(N/N=C/c1ccc(N(CCCl)CCCl)cc1)c1ccc(C(=O)N/N=C/c2ccc(N(CCCl)CCCl)cc2)cc1 | 1600 | 80600 |
| C[C@@H](C[C@H](CCO)c1ccccc1)c1ccc2ccccc2c1 | 1530 | 2980 |
| CC(C)(C)c1ccc(CC(=O)Nc2sc3c(c2C(N)=O)CCC(=O)C3)cc1 | 1380 | 3720 |
| C=Cc1cc(OC)c2c(c1)c(=O)oc1c2cc(OC)c2c(O)ccc(C3OC(C(C)O)C(O)C3O)c21 (stereo unspecified) | 4.91 | > 1000 |
| COc1ccc(F)cc1-c1ccnc2[nH]c(C3=CCN(C4CCC(CC(=O)O)CC4)CC3)cc12 (stereo unspecified) | 77.9 | 444 |
| Cc1c2ccccc2c(C)n2c1nc1cc(Cl)c(Cl)cc12 | 27600 | > 100000 |
| CC[C@@H](C(=O)[C@@H](C)[C@@H](O)[C@H](C)[C@@H]1O[C@@H]([C@@H](CC)C(=O)O)CC[C@@H]1C)[C@H]1O[C@]2(C=C[C@@H](O)[C@]3(CC[C@@](C)([C@H]4CC[C@](O)(CC)[C@H](C)O4)O3)O2)[C@H](C)C[C@@H]1C | 197 | 2440 |
| CC1=C(SCCC(=O)OC(C[Se]C2=C(C)C(=O)c3ccccc3C2=O)C(=O)NC(C)(C)C)C(=O)c2ccccc2C1=O (stereo unspecified) | 226 | 657 |
| CC(C)(C)CC(C)(C)NCC(O)COc1ccc(C(C)(C)c2ccc(OCC(O)CNC(C)(C)CC(C)(C)C)cc2)cc1 (stereo unspecified) | 1310 | 2770 |
| N=C(N)c1ccc(-c2ccc(-c3ccc(Cl)cc3Cl)s2)nc1 | 1720 | 3410 |
| c1ccc2c(NCCCN3CCOCC3)c3oc4ccccc4c3nc2c1 | 1360 | 3400 |
| CN(C)CCOc1ccc2c(c1)C(=O)/C(=C\c1ncc([N+](=O)[O-])n1C)C2 | 188 | 516 |
| COc1ccc(C2C3=C(COC3=O)N(CCO)c3cc4c(cc32)CCC4)cc1 (stereo unspecified) | 1360 | 5330 |
| COC(=O)c1cc(C)[nH]c2c(C)cc3nc4ccccc4c3c12 | 3760 | 12300 |
| CCOC(=O)N(O)c1ccc(/C=C/c2ccccc2)cc1 | 25 | 90.8 |
| O=S(=O)(Nc1ccc(Cl)c(Cl)c1)c1ccc(-c2cnc(C3CC3)o2)cc1 | 222 | 736 |
| Cn1cc(-c2csc(-c3cn(C(=O)OC(C)(C)C)c4ccccc34)n2)c2cccnc21 | 865 | 12300 |
| CCCCCCCCc1cc(O)ccc1O | 11300 | 28600 |
